{
  "source": "patent US8778298B2",
  "about": "“Isotope labeled 2-arylpropionic acid compounds and process for production of same, and molecular probe for positron emission tomography and method for imaging of cyclooxygenase and the like using same” (Riken, priority 2009, dated 2014)",
  "assay_type_in_all_cases": "in vivo",
  "key": {"cyclooxygenase-2 [1]": {"system": "cyclooxygenase-2", "experiment": "Ex vivo autoradiography (ARG) of rat brain section after PET, compared with cyclooxygenase-2 immunostaining", "protocol": "PET was performed using a brain inflammation model rat for the [^11C]ketoprofen methyl ester (8) synthesized in Example 6. In the experiment, a trace amount, 0.5 μg, of lipopolysaccharide (LPS) that is a constituent of a gram-negative bacteria cell wall outer membrane was injected into the left striatum of a rat, thereby inducing brain inflammation (Hunter R L, Dragicevic N, Seifert K, Choi D Y, Liu M, Kim H C, Cass W A, Sullivan P G, Bing G. Inflammation induces mitochondrial dysfunction and dopaminergic neurodegeneration in the nigrostriatal system. J. Neurochem. 2007100:5:1375-86.). The [^11C]ketoprofen methyl ester (8) was administered to a rat after 1 day from injection of LPS through a caudal vein, PET was performed for 45 minutes using a PET apparatus for small animals (manufactured by microPET, SIMENS). The injection solution of the [^11C]ketoprofen methyl ester (radioactivity 72 to 74 MBq) was prepared by diluting with saline to 1.0 CC volume. […] In the experiment, the rat was perfused with saline, and a section prepared with 2 mm thickness, which was obtained from the brain taken out from the rat, was exposed on an imaging plate BAS SR-2040 (manufactured by Fujifilm Corporation) for 1 hour to read using a fluoroimage analyzer (FLA7000). […]"}, "cyclooxygenase-2 [2]": {"system": "cyclooxygenase-2", "experiment": "PET imaging using brain inflammation model rat (LPS injected into left striatum)", "protocol": "PET was performed using a brain inflammation model rat for the [^11C]ketoprofen methyl ester (8) synthesized in Example 6. In the experiment, a trace amount, 0.5 μg, of lipopolysaccharide (LPS) that is a constituent of a gram-negative bacteria cell wall outer membrane was injected into the left striatum of a rat, thereby inducing brain inflammation (Hunter R L, Dragicevic N, Seifert K, Choi D Y, Liu M, Kim H C, Cass W A, Sullivan P G, Bing G. Inflammation induces mitochondrial dysfunction and dopaminergic neurodegeneration in the nigrostriatal system. J. Neurochem. 2007100:5:1375-86.). The [^11C]ketoprofen methyl ester (8) was administered to a rat after 1 day from injection of LPS through a caudal vein, PET was performed for 45 minutes using a PET apparatus for small animals (manufactured by microPET, SIMENS). The injection solution of the [^11C]ketoprofen methyl ester (radioactivity 72 to 74 MBq) was prepared by diluting with saline to 1.0 CC volume. In order to further study an effect of inhibiting bonds by a non-RI labeled body, an injection solution added with 10 mg/kg of ketoprofen methyl ester (final concentration of a solvent was 5% DMSO, 5% tween20) was prepared. On completion of PET imaging, a rat brain section was prepared and an Ex vivo autoradiography (ARG) experiment was performed. In the experiment, the rat was perfused with saline, and a section prepared with 2 mm thickness, which was obtained from the brain taken out from the rat, was exposed on an imaging plate BAS SR-2040 (manufactured by Fujifilm Corporation) for 1 hour to read using a fluoroimage analyzer (FLA7000). In order to identify an expression site of cyclooxygenase-2, chemical staining of an immune tissue in a brain section was performed using a specific antibody. That is, 20 μm of a frozen section prepared from the brain section used in the autoradiography mentioned above and pasted on a slide glass was incubated with anti-cyclooxygenase-2 (rabbit IgG, polyclonal antibody, manufactured by Cayman) diluted to PBS-T at a concentration of 200 times as a primary antibody at 4° C. overnight. […]"}, "APP-Tg mouse brain": {"system": "APP-Tg mouse brain", "experiment": "PET imaging of Alzheimer disease model animal (APP-Tg mouse vs wild type mouse)", "source_text": "PET images were taken using an Alzheimer disease model mouse for the [^11C]ketoprofen methyl ester (21) synthesized in Example 6. For the Alzheimer disease model mouse, a transgenic mouse (APP-Tg) excessively expressing amyloid precursor protein (APP) in familial Alzheimer disease was purchased from Taconic Farms, Inc. USA to be used. In 24 months old when accumulation of amyloid β protein was confirmed as pathological change of Alzheimer disease, the [^11C]ketoprofen methyl ester (21) was administered through a caudal vein, and PET images were taken for 30 minutes using a PET apparatus for small animals (microPET, manufactured by SIMENS). The injection solution of the [^11C]ketoprofen methyl ester (21) (radioactivity 45 to 60 MBq) was prepared by diluting with saline to 1.0 CC volume. SUV (Standard Uptake Value)=tissue radioactivity in region of interest (MBq/g)÷[administration amount (MBq)/body weight (g)] was used as the index of an accumulation level, to compare with a brain of a wild type mouse that is a normal mouse in terms of an accumulation amount into the APP-Tg mouse brain."}},
  "data": [
    {"compound": "COC(=O)C([11CH3])c1cccc(C(=O)c2ccccc2)c1", "note": "(stereo not shown) [[^11C]ketoprofen methyl ester (8), [^11C]ketoprofen methyl ester]", "values": [
      {"measurement": "accumulation in ex vivo autoradiography (ARG) of rat brain section", "setting": "cyclooxygenase-2 [1]; 2 mm brain section taken on completion of PET imaging, LPS rat", "value": "accumulated specifically in an inflammation site"},
      {"measurement": "accumulated site versus immunostaining of cyclooxygenase-2", "setting": "cyclooxygenase-2 [1]; 20 μm frozen section from ARG brain section, anti-cyclooxygenase-2 antibody, DAB method", "value": "correspond with a positive site of immunostaining of cyclooxygenase-2"},
      {"measurement": "accumulation in inflammation region with co-administered non-RI labeled ketoprofen methyl ester (specificity)", "setting": "cyclooxygenase-2 [2]; 10 mg/kg of non-RI labeled ketoprofen methyl ester added to injection solution", "value": "significantly reduced"},
      {"measurement": "passage through the blood-brain barrier (PET)", "setting": "cyclooxygenase-2 [2]; rat 1 day after 0.5 μg LPS into left striatum, tracer via caudal vein, PET 45 minutes", "value": "passed through the blood-brain barrier"},
      {"measurement": "accumulation of radioactivity in brain (addition average of PET images)", "setting": "cyclooxygenase-2 [2]; rat 1 day after LPS into left striatum, tracer via caudal vein, 45 minutes after administration", "value": "accumulated in an inflammation region around the LPS injected site in the left side of the brain"},
      {"measurement": "accumulation amount (SUV) in brain, APP-Tg versus wild type mouse", "setting": "APP-Tg mouse brain; 24 months old APP-Tg mouse, caudal vein, PET images in 25 minutes after 5 minutes from administration", "value": "highly accumulated in the APP-Tg mouse brain as compared with the wild type mouse brain"},
      {"measurement": "site of high accumulation versus reported site of amyloid β accumulation", "setting": "APP-Tg mouse brain; APP-Tg mouse brain, compared with literature report (Am J Pathol. 1998)", "value": "corresponded with a site that was reported of accumulation of amyloid β"}
    ]}
  ]
}
